Columns and labels:
[1] = system: itch; settings: cited from earlier work; for time necessary to stop the immediate itch: topical application
[2] = system: itching skin; experiment: rubbing iodine condensate on cotton fiber against itching skin; assay type: in vivo, mammal
Protocol: A concentration of iodine in the range of 0.01 to 2 mg/inch^2 of skin surface is found to provide analgesia. An applicator useful for carrying and discharging the analgesic element, in its amorphous form, has been made by loading cotton fiber over a bed of hard iodine crystals sitting at the bottom of a fuming chamber. The bottom of the fiber stack is placed in contact to the top of the iodine bed. By warming the crystals, the reservoir fiber is charged with a fine, soft, rising tan colored sublimate of the hard crystal. At a temperature of 35.deg.C., 2 days is sufficient to charge a fiber with sublimated iodine in a range, by weight, of 1 to 30 mg/g of the wipe fiber. The charged fiber has a tan color, appearing as of having been dipped in liquid iodophor and then dried. Individual crystals of iodine are not readily observed and the charged wipe feels softer than the original fiber. On dipping the charged fiber in water, its tan coloration disappears.
Itching skin is found to be efficiently treated by rubbing the cotton fiber coated with condensed iodine against the itch.
The skin is not irritated by treatment from a wipe preferably comprising about 10 mg of condensate per gram of fiber comprising cotton. […] A preferred treatment supplies about 0.05 to 1 mg/inch^2 of skin. An iodine concentration of over 2 mg/inch^2 of skin begins to cause pain, while still relieving the itch.

SMILES: CN(C)CCOC(c1ccccc1)c1ccccc1 [diphenhydramine]
- time necessary to stop the immediate itch [1]: about 15 minutes

SMILES: CCOC(=O)c1ccc(N)cc1 [benzocaine]
- time necessary to stop the immediate itch [1]: ≤ 5 min

SMILES: II [iodine]
- time to relief from an itch after application ([2]; amorphous tan condensate, single treatment): ≤ 1 min
- time to relieve the urge to scratch after application ([2]; cotton fiber coated with condensed iodine, rubbed in forceful back and forth motion): within three minutes
- iodine concentration on skin that begins to cause pain ([2]; while still relieving the itch): over 2 mg/inch^2
- skin irritation ([2]; wipe with about 10 mg of condensate per gram of cotton fiber): not irritated

SMILES: COC1=CC(=O)C[C@@H](C)[C@]12Oc1c(Cl)c(OC)cc(OC)c1C2=O [griseofulvin]
- time necessary to stop the immediate itch (time to disinfect) ([1]; antibiotic composition): several days

SMILES: CC(=O)OCC(=O)[C@@]1(O)CC[C@H]2[C@@H]3CCC4=CC(=O)CC[C@]4(C)[C@H]3[C@@H](O)C[C@@]21C [hydrocortisone acetate]
- time necessary to stop the immediate itch [1]: about 15 minutes
